Measurements as given in patent US6140327A, “Morpholino-n-ethyl ester derivative of an indole sPLA2 inhibitor” (Eli Lilly and Company, priority 1999, dated 2000).

Experiments:
[1] = Monkey Pharmacokinetic Study (bioavailability); assay type: in vivo; conditions: conclusion compared with other esters of the parent and the 2-methyl homolog, oral administration
Procedure: Plasma was assayed by HPLC to measure concentrations of the different sPLA2 inhibitors (measured as free acids).
Cmax (maximal plasma concentrations), and AUC values were determined from the mean plasma concentration-time profiles.

[2] = target: recombinant human secreted phospholipase A2; conditions: guinea pig lung tissue; sPLA2 10 ug/ml; read-out: Tissue test secreted PLA2 Apparent KB; cited from earlier work
[3] = target: recombinant human secreted phospholipase A2; conditions: cited from earlier work

CCc1c(C(=O)C(N)=O)c2c(OCC(=O)OCCN3CCOCC3)cccc2n1Cc1ccccc1 [Compound 1, ((3-(2-amino-1,2-dioxoethyl)-2-ethyl-1-(phenylmethyl)-1H-indol-4-yl)oxy)acetic acid morpholino-N-ethyl ester]
bioavailability (in words) [1]: unexpectedly more bioavailable than other esters of the parent sPLA2 inhibitor of formula II and also more bioavailable than the 2-methyl homolog of the parent sPLA2 inhibitor of formula II
bioavailability (in words) ([1]; listed as formula (I)): highly bioavailable upon oral administration compared to closely related ester type prodrugs

CCc1c(C(=O)C(N)=O)c2c(OCC(=O)O)cccc2n1Cc1ccccc1 [formula (II), ((3-(2-amino-1,2-dioxoethyl)-2-ethyl-1-(phenylmethyl)-1H-indol-4-yl)oxy)acetic acid]
Kb [2]: 88.7 ± 18.2 nM
IC50 ([3]; chromogenic assay, 3-4 tests, read-out: Inhibition of human secreted PLA2 IC50 ± mean deviation (3-4 tests)): 9 ± 1.73 nM
inhibiting sPLA2 (conclusion in words) ([3]; conclusion of Table I): highly active in inhibiting sPLA2
